pIC50: −log10 of the molar value.

For data set [1], the target named is T1, Thioredoxin glutathione reductase (Schistosoma mansoni) (UniProt Q962Y6).
T1 sequence (whole entry): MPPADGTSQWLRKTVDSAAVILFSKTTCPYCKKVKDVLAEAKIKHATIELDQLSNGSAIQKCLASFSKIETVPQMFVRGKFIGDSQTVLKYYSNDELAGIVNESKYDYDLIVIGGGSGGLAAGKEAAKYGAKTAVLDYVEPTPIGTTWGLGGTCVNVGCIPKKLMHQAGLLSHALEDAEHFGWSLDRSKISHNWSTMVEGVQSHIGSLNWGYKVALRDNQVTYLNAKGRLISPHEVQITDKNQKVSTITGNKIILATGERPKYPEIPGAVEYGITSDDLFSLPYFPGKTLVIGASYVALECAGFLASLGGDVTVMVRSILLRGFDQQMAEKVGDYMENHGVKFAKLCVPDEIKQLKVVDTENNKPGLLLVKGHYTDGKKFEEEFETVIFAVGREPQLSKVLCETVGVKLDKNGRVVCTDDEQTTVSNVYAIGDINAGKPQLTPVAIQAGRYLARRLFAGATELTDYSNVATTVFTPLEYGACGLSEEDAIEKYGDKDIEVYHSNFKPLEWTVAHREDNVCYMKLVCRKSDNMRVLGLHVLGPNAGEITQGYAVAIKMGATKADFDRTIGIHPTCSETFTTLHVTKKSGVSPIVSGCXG
The data set is described as follows: Inhibition of Schistosoma mansoni TGR at 66.7 uM incubated for 6 hrs in presence of NADPH.

A short description of data set [2]: Inhibition of human TrxR1 incubated for 6 hrs in presence of NADPH.
A short description of data set [3]: Inhibition of human TrxR1.
Data set [4] deals with T2, Thioredoxin glutathione reductase (Schistosoma mansoni, UniProt Q962Y6).
T2 sequence (Q962Y6 whole entry): T1 sequence (whole entry)
The data set is described as follows: Inhibition of Schistosoma mansoni TGR incubated for 15 mins in presence of NADPH.

A short description of data set [5]: Inhibition of human TrxR1 incubated for 15 mins in presence of NADPH.
The nature of data set [6]: Cytotoxicity against african green monkey Vero cells measured after 24 hrs. The format is toxicity, cell-based. Conditions: chlorocebus sabaeus, read-out: LD50.
Data set [7] concerns Schistosoma mansoni. The data set is described as follows: Schistosomicidal-activity against Schistosoma mansoni adult worm measured after 24 hrs. The format is functional. Particulars: read-out: LD50 (the source's name).
The nature of data set [8]: Selectivity ratio of IC50 for human TrxR1 to IC50 for Schistosoma mansoni TGR.

Turning to `Cc1oc(-c2ccc3ccccc3c2)nc1CNC1CCCCCC1`, the inhibition (usually the change of the read-out against control, counted positive when it falls) in data set [1] was found to be 28.7%. Also, the pIC50 (usually the IC50 on a negative log10 scale, so that one unit is a factor of ten) in data set [2] is less than 4.72.

`O=C(Nc1ccc(Cl)cc1)c1ccc([N+](=O)[O-])o1` gave a pIC50 in data set [3] of 5.42.

On to `C[C@@H]1[C@H]2C[C@@H](C[C@H]1NCc1cn([C@@H]3OC[C@@H](O)[C@H](O)[C@H]3O)c3ccccc13)C2(C)C`, for which, in data set [4], the pIC50 is 4.24.

For `CCc1ccccc1-c1nc(CN[C@@H]2C[C@@H]3C[C@H]([C@H]2C)C3(C)C)c(C)o1`, the inhibition in data set [1] worked out at 28.7%. Also, the pIC50 in data set [2] is less than 4.72.

Take `Cc1oc(C2CCCCC2)nc1CN[C@@H]1C[C@@H]2C[C@H]([C@H]1C)C2(C)C`: the inhibition in data set [1] stood at 28.7%. Moreover, the pIC50 in data set [2] is less than 4.72.

For `C#CCN(Cc1nc(-c2ccccc2)oc1C)C1C[C@@H]2C[C@H]([C@H]1C)C2(C)C` (stereo partly drawn), the pIC50 in data set [5] was less than 4.18; in data set [4], 5.60. Moreover, the CC50 at 24 h in data set [6] was greater than 100 µM. Moreover, the LC50 in data set [7] was 15.7 µM. In addition, in data set [8], the Ratio IC50 was 25.

`Cc1oc(-c2ccc3c(c2)OCO3)nc1CN[C@@H]1C[C@@H]2C[C@H]([C@H]1C)C2(C)C`: in data set [1], the inhibition amounted to 28.7%. Further, in data set [2], the negative logarithm of the IC50 (pIC50) is less than 4.72.

For the compound `C[C@@H]1[C@H]2C[C@@H](C[C@H]1NCc1nc3ccccc3n1C1CCCCCC1)C2(C)C`, the negative logarithm of the IC50 (pIC50) in data set [5] was 5.31.

With `Cc1oc(-c2ccccc2)nc1CN[C@@H]1C[C@@H]2C[C@H]([C@H]1C)C2(C)C`, the inhibition in data set [1] came out at 28.7%. For the same compound, the pIC50 in data set [2] was less than 4.72.
